From ChEMBL document CHEMBL5576159, “Discovery and structure-activity relationship study of novel isoxazole-based small molecules targeting Zika virus infections” (RSC Med Chem, 2024)

Legend:
[1] = test system: Zika virus; assay: Antiviral activity against ZIKV BR infected in cervical cells; conditions: Cervical cell
[2] = Cytotoxicity against African green monkey Vero cells infected with ZIKV MR766 incubated for 48 hrs by immunofluorescence analysis; conditions: chlorocebus sabaeus, Vero cells infected with ZIKV PRVABC59
[3] = Selectivity index, ratio of CC50 for African green monkey Vero cells infected with ZIKV MR766 to EC50 for ZIKV MR766 infected in Vero cells
[4] = test system: Zika virus; assay: Antiviral activity against ZIKV MR766 infected in Vero cells measured after 48 hrs by immunofluorescence analysis
[5] = molecular target: Cytochrome P450 2D6 (Homo sapiens, UniProt P10635); assay: Inhibition of CYP2D6 in human liver microsomes using dextromethorphan as substrate preincubated for 5 mins followed by substrate and NADPH addition and measured after 20 mins by LC-MS/MS analysis
Cytochrome P450 2D6, sequence (P10635 whole entry): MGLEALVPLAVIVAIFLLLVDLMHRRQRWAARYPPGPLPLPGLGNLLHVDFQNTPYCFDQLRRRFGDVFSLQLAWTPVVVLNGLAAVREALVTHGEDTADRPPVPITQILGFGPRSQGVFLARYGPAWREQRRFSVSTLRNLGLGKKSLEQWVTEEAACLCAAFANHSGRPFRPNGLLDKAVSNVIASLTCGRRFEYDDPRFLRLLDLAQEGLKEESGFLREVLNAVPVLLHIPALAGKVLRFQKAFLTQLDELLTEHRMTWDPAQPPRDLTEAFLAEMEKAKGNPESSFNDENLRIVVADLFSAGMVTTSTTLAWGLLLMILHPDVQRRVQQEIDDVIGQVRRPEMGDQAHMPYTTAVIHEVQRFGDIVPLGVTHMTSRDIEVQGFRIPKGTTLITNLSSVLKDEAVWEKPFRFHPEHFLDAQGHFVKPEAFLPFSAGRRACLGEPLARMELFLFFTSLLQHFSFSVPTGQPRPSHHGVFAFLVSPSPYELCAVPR

[6] = molecular target: hERG (Homo sapiens, UniProt Q12809); assay: Inhibition of hERG at 10 uM incubated for 2 hrs relative to control
hERG, sequence (Q12809 whole entry): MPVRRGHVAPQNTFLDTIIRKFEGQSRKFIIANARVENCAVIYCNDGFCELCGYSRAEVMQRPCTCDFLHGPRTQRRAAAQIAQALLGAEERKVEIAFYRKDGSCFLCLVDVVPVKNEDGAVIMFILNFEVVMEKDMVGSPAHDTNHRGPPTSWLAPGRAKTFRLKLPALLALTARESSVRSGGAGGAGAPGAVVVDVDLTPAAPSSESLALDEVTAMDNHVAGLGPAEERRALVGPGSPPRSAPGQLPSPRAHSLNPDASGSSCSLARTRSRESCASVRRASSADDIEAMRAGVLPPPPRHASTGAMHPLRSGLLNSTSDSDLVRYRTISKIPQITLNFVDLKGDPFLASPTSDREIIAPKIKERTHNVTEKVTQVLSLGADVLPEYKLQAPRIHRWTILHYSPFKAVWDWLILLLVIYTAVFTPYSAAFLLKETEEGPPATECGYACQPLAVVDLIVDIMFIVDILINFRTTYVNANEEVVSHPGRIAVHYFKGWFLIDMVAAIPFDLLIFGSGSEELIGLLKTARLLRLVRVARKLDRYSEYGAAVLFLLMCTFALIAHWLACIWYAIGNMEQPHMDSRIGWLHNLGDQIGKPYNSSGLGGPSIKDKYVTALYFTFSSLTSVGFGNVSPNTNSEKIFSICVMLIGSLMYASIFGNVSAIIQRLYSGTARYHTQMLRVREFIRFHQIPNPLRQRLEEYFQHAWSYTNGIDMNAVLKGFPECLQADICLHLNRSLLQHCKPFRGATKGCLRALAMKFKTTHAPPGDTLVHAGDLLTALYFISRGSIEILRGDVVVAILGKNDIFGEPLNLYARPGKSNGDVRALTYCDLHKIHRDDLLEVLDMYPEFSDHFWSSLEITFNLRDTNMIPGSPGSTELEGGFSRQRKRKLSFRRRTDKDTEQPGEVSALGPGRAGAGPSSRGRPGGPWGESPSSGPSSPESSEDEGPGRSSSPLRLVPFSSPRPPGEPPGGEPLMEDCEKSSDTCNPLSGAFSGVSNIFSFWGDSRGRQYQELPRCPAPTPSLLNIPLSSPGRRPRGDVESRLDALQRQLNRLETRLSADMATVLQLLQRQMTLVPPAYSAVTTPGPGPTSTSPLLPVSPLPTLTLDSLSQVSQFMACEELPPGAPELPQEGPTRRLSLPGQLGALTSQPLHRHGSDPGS

[7] = Plasma protein binding in human at 5 uM incubated for 4 hrs under shaking condition by LC-MS/MS analysis
[8] = Stability in human liver microsomes assessed as compound remaining at 1 uM incubated for 30 mins by LC-MS/MS analysis
[9] = Stability in rat liver microsomes assessed as compound remaining at 1 uM incubated for 30 mins by LC-MS/MS analysis
[10] = Plasma protein binding in mouse at 5 uM incubated for 4 hrs under shaking condition by LC-MS/MS analysis
[11] = Stability in mouse liver microsomes assessed as compound remaining at 1 uM incubated for 30 mins by LC-MS/MS analysis
[12] = test system: Zika virus; assay: Antiviral activity against ZIKV infected in Vero E6 cells assessed as inhibition of viral replication; conditions: Vero C1008
[13] = Cytotoxicity against African green monkey Vero E6 cells; type: toxicity, cell-based, Vero C1008; conditions: chlorocebus sabaeus

EC50 [4] [µM]	SMILES	CC50 at 48 h [2] [µM]	other results
–	O=S(=O)(NCCCCNc1ccnc2cc(Cl)ccc12)c1ccc(Cl)cc1	–	EC50 [1]: 3.2 µM
–	FC(F)(F)c1cc(-c2cc(-c3ccc(NCc4cccnc4)cc3)no2)ccn1	> 100	–
36.8	c1ccc(-c2nc(-c3ccc(NCc4cccnc4)cc3)c[nH]2)cc1	94.1	selectivity ratio [3]: 2.6
–	N#Cc1ccc(-c2cc(-c3ccc(NCc4cccnc4)cc3)no2)cc1	> 100	IC50 [5]: > 99 µM
–	FC(F)(F)c1ccc(-c2cc(-c3ccc(NCc4cccnc4)cc3)no2)cc1	> 100	IC50 [5]: > 99 µM; inhibition at 2 h, 10 µM [6]: 5.37%; fraction unbound at 4 h, 5 µM [7]: 0.0047; remaining at 0.5 h, 1 µM [8]: 71.5%; remaining at 0.5 h, 1 µM [9]: 51.7%; fraction unbound at 4 h, 5 µM [10]: 0.003; remaining at 0.5 h, 1 µM [11]: 79.6%
–	COc1ccccc1-c1cc(-c2ccc(NCc3cccnc3)cc2)no1	> 100	IC50 [5]: 27.1 µM
5.3	c1ccc(-c2noc(-c3ccc(NCc4cccnc4)cc3)n2)cc1	61.4	selectivity ratio [3]: 11.6
–	FC(F)(F)Oc1ccc(-c2cc(-c3ccc(NCc4cccnc4)cc3)no2)nc1	> 100	–
–	CCn1c2ccccc2c2cc(NC(=O)Nc3ccc(N)cc3C)ccc21	–	EC50 [12]: 1.67 µM; CC50 [13]: > 12.5 µM
> 100	c1ccc(-c2nnc(-c3ccc(NCc4cccnc4)cc3)o2)cc1	> 100	–
–	Fc1ccc(-c2cc(-c3ccc(NCc4cccnc4)cc3)no2)cc1	> 100	–
> 100	Cn1cc(-c2ccc(NCc3cccnc3)cc2)nc1-c1ccccc1	> 100	–
–	c1cncc(CNc2ccc(-c3cc(-c4cncnc4)on3)cc2)c1	> 100	IC50 [5]: 3.5 µM
44.5	FC(F)(F)Oc1ccccc1-c1cc(-c2ccc(NCc3cccnc3)cc2)no1	–	–
3.3	Fc1cccc(-c2cc(-c3ccc(NCc4cccnc4)cc3)no2)c1	–	–
5.1	c1ccc(-c2cnc(-c3ccc(NCc4cccnc4)cc3)o2)cc1	12.9	selectivity ratio [3]: 2.5
